Where a name gives a salt, the structure may show the parent alone. Each block holds one compound with its values, some of them ahead of it.
Experiments:
humans = conditions: in vivo, iv; cited from earlier work
[1] = Solubility of HXM in pure triglycerides; assay type: physicochemical; conditions: organic solvent or mixture
[2] = cited from earlier work
[3] = Compatibility of lipid triglycerides with HXM solubilization and phospholipid emulsion

SMILES: CN(C)c1nc(N(C)C)nc(N(C)C)n1 [Gentisate salt of HXM]
- local irritation (humans): severe local irritation

- solubility [1]: > 50000 µg/mL
SMILES: CN(C)c1nc(N(C)C)nc(N(C)C)n1 [HXM, 2,4,6-Tris(dimethylamino)-s-triazine]
- solubility of the free drug in saline solution ([2]; saline solution, Wickes et al. 1985): 70 µg/mL
- solubility of the free drug in water ([2]; water, Ames et al. 1982): 200 µg/mL

SMILES: CCCCCCCC/C=C\CCCCCCCC(=O)OCC(COC(=O)CCCCCCC/C=C\CCCCCCCC)OC(=O)CCCCCCC/C=C\CCCCCCCC [triolein]
- ability of triglyceride to solubilize HXM [3]: ineffective at solubilizing HXM

Source: patent US4963363A, “Phospholipid delivery vehicle for aqueous-insoluble active ingredients” (priority 1989, dated 1990)
